This experiment deals with T1, human BRD4 bromodomain II (Homo sapiens, UniProt O60885).
T1 construct: human BRD4 bromodomain II [based on Genbank NM_058243, residues 349-460]; host or cells: E. coli
Briefly: Bromodomain binding assay (AlphaScreen), BRD4 BDII. Conditions: Table C2. The method, boiled down: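 Tagged BRD4 BDI or BDII constructs, expressed in E. coli, competed against a K5/K8/K12/K16-acetylated biotin-H4 peptide. Proximity signal between bead pairs after room-temperature incubations gave concentration-response curves, from which IC50 was derived.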
(In Alpha technology, singlet oxygen from a donor bead excites a nearby acceptor bead.)

Where [1] appears, read: AlphaScreen assay, read-out: BRD4 BDII IC50.

Where two headings read alike, the source gives them in different places. Where only a bound is given, the exact number is not on record here.

Regarding `CC(=O)Nc1ccc(-c2cccc(-c3cccc(F)c3)c2O)cc1F` [Example 54, N-(3,3″-Difluoro-2′-hydroxy-[1,1′:3′,1″-terphenyl]-4-yl)acetamide], under setting [1], the IC50 was above 0.1 µM. Same read-out and setting: then `COc1c(-c2ccc(NC(C)=O)cc2)cccc1-c1cc(N2CCN(C)CC2)no1` [Example 7], with above 0.1 µM; and `CC(=O)Nc1ccc(-c2cccc(-c3ccc(OC4CCC4)cc3)c2O)cc1F` [Example 117, N-(4″-Cyclobutoxy-3-fluoro-2′-hydroxy-[1,1′:3′,1″-terphenyl]-4-yl)acetamide], with above 0.1 µM. Same read-out and setting: the same measure for `COc1cc(-c2cccc(-c3ccc(N4CCCC4=O)c(F)c3)c2O)ccc1NC(C)=O` [Example 129, N-(3″-Fluoro-2′-hydroxy-3-methoxy-4″-(2-oxopyrrolidin-1-yl)-[1,1′:3′,1″-terphenyl]-4-yl)acetamide]: 0.01 to 0.1 µM; for `O=C1CCOc2cc(-c3cccc(-c4cc(N5CCNCC5)no4)c3O)ccc2N1` [Example 62, 8-(2-Hydroxy-3-(3-(piperazin-1-yl)isoxazol-5-yl)phenyl)-2,3-dihydrobenzo[b][1,4]oxazepin-4(5H)-one]: above 0.1 µM. On to `CC(=O)Nc1ccc(-c2cccc(-c3ccc4cnccc4c3)c2O)cc1F` [Example 145, N-(3-fluoro-2′-hydroxy-3′-(isoquinolin-6-yl)-[1,1′-biphenyl]-4-yl)acetamide], for which the IC50 under setting [1] was in the range of 0.01 to 0.1 µM. Still for that read-out and setting: the same measure for `COc1ccc(C)c(-c2cccc(-c3ccc(NC(C)=O)c(F)c3)c2O)c1` [Example 147, N-(3-fluoro-2′-hydroxy-5″-methoxy-2″-methyl-[1,1′:3′,1″-terphenyl]-4-yl)acetamide]: above 0.1 µM; for `CC(=O)Nc1ccc(-c2cc(F)cc(-c3ccc(Cl)c(N4CCNCC4)c3)c2O)cc1F` [Example 242, N-(4″-chloro-3,5′-difluoro-2′-hydroxy-3″-(piperazin-1-yl)-[1,1″-terphenyl]-4-yl)acetamide]: 0.001 to 0.01 µM; for `COc1cc(-c2cccc(-c3ccc(NC(C)=O)c(F)c3)c2O)ccc1NC(C)=O` [Example 42, N,N′-(3-Fluoro-2′-hydroxy-3″-methoxy-[1,1′:3′,1″-terphenyl]-4,4″-diyl)diacetamide]: 0.01 to 0.1 µM. Still for that read-out and setting: then `CC(=O)Nc1ccc(-c2cccc(-c3cccc(N4CCNCC4=O)c3)c2O)cc1F` [Example 191, N-(3-fluoro-2′-hydroxy-3″-(2-oxopiperazin-1-yl)-[1,1′:3′,1″-terphenyl]-4-yl)acetamide], with above 0.1 µM; and `CC(=O)Nc1ccc(-c2cccc(-c3cccc(OC4CCCC4)c3)c2O)cc1F` [Example 115, N-(3″-(Cyclopentyloxy)-3-fluoro-2′-hydroxy-[1,1′:3′,1″-terphenyl]-4-yl)acetamide], with above 0.1 µM; and `CC(=O)Nc1ccc(-c2cccc(-c3cc(N4CCNCC4)ccn3)c2O)cc1F` [Example 233, N-(3-fluoro-2′-hydroxy-3′-(4-(piperazin-1-yl)pyridin-2-yl)-[1,1′-biphenyl]-4-yl)acetamide], with above 0.1 µM.

Regarding `CC(=O)Nc1ccc(-c2cccc(-c3cc(N4CCN(S(=O)(=O)c5ccccc5)CC4)no3)c2O)cc1` [Example 58, N-(2′-Hydroxy-3′-(3-(4-(phenylsulfonyl)piperazin-1-yl)isoxazol-5-yl)-[1,1′-biphenyl]-4-yl)acetamide], the IC50 under setting [1] is above 0.1 µM. Turning to `CC(=O)Nc1ccc(-c2cccc(-c3ccc(NC(C)=O)c(OC(C)C)c3)c2O)cc1F` [Example 87, N,N′-(3-Fluoro-2′-hydroxy-3″-isopropoxy-[1,1′:3′,1″-terphenyl]-4,4″-diyl)diacetamide], the half-maximal inhibitory concentration (IC50) under setting [1] is above 0.1 µM. Still for that read-out and setting: then `CC(=O)Nc1ccc(-c2cccc(-c3cccc(-c4ccnc(N)c4)c3)c2O)cc1F` [Example 204, N-(3″-(2-aminopyridin-4-yl)-3-fluoro-2′-hydroxy-[1,1′:3′,1″-terphenyl]-4-yl)acetamide], with 0.001 to 0.01 µM; and `CC(=O)Nc1ccc(-c2cccc(-c3ccnc(N4CCC(CO)CC4)c3)c2O)cc1F` [Example 198, N-(3-fluoro-2′-hydroxy-3′-(2-(4-(hydroxymethyl)piperidin-1-yl)pyridin-4-yl)-[1,1′-biphenyl]-4-yl)acetamide], with 0.001 to 0.01 µM. Regarding `CC(=O)Nc1ccc(-c2cccc(-c3cccc(N4CCC(CN)CC4)c3)c2O)cc1F` [Example 186, N-(3″-(4-(aminomethyl)piperidin-1-yl)-3-fluoro-2′-hydroxy-[1,1′:3′,1″-terphenyl]-4-yl)acetamide], the IC50 under setting [1] was above 0.1 µM. On to `CCOc1ccc(-c2cccc(-c3ccc(NC(C)=O)c(F)c3)c2O)cc1` [Example 71, N-(4″-ethoxy-3-fluoro-2′-hydroxy-[1,1′:3′,1″-terphenyl]-4-yl)acetamide], for which the IC50 under setting [1] was above 0.1 µM. `CC(=O)Nc1ccc(-c2cccc(-c3cc(N4CCNCC4)no3)c2O)cc1C(C)C` [Example 27, N-(2′-Hydroxy-3-isopropyl-3′-(3-(piperazin-1-yl)isoxazol-5-yl)-[1,1′-biphenyl]-4-yl)acetamide 2,2,2-trifluoroacetate]: the IC50 under setting [1] was above 0.1 µM. The same measure, in the same setting: the same measure for `CC(=O)Nc1ccc(-c2cccc(-c3ccc(NC(C)=O)nc3)c2O)cn1` [Example 40, N,N′-(5,5′-(2-Hydroxy-1,3-phenylene)bis(pyridine-5,2-diyl))diacetamide]: above 0.1 µM. For `CC(=O)Nc1ccc(-c2cccc(-c3ccnc(C(N)=O)c3)c2O)cc1F` [Example 211, 4-(4′-acetamido-3′-fluoro-2-hydroxy-[1,1′-biphenyl]-3-yl)picolinamide], under setting [1], the IC50 was above 0.1 µM. Same read-out and setting: then `CCOc1cc(-c2cccc(-c3cc(N4CCNCC4)no3)c2O)ccc1NC(C)=O` [Example 19, N-(3-Ethoxy-2′-hydroxy-3′-(3-(piperazin-1-yl)isoxazol-5-yl)-[1,1′-biphenyl]-4-yl)acetamide 2,2,2-trifluoroacetate], with above 0.1 µM; and `CC(=O)Nc1ccc(-c2cccc(-c3cccc(N4CC5(CNC5)C4)c3)c2O)cc1F` [Example 219, N-(3-fluoro-2′-hydroxy-3″-(2,6-diazaspiro[3.3]heptan-2-yl)-[1,1′:3′,1″-terphenyl]-4-yl)acetamide], with 0.01 to 0.1 µM; and `CC(=O)Nc1ccc(-c2cccc(-c3ccc4ncccc4c3)c2O)cc1F` [Example 120, N-(3-Fluoro-2′-hydroxy-3′-(quinolin-6-yl)-[1,1′-biphenyl]-4-yl)acetamide], with 0.01 to 0.1 µM.

Consider `CC(=O)Nc1ccc(-c2cccc(-c3cccc(-c4nc[nH]n4)c3)c2O)cc1F` [Example 208, N-(3-fluoro-2′-hydroxy-3″-(1H-1,2,4-triazol-3-yl)-[1,1′:3′,1″-terphenyl]-4-yl)acetamide], for which the IC50 under setting [1] is above 0.1 µM.

Take `CC(=O)Nc1ccc(-c2cccc(-c3ccc(N)nc3)c2O)cc1F` [Example 110, N-(3′-(6-Aminopyridin-3-yl)-3-fluoro-2′-hydroxy-[1,1′-biphenyl]-4-yl)acetamide]: under setting [1], the IC50 was in the range of 0.01 to 0.1 µM. On to `O=C1CCCN1c1ccc(-c2cccc(-c3ccncc3)c2O)cc1F` [Example 190, 1-(3-fluoro-2′-hydroxy-3′-(pyridin-4-yl)-[1,1′-biphenyl]-4-yl)pyrrolidin-2-one], for which, under setting [1], the IC50 was 0.01 to 0.1 µM. For the molecule `O=C(CF)Nc1ccc(-c2cccc(-c3cc(N4CCNCC4)no3)c2O)cc1` [Example 66, 2-Fluoro-N-(2′-hydroxy-3′-(3-(piperazin-1-yl)isoxazol-5-yl)-[1,1′-biphenyl]-4-yl)acetamide 2,2,2-trifluoroacetate], for the setting “BRD4 BDII IC50, AlphaScreen assay”, the IC50 is above 0.1 µM. As to `CC(=O)Nc1ccc(-c2cccc(-c3ccc4c(c3)CCN4)c2O)cc1F` [Example 137, N-(3-fluoro-2′-hydroxy-3′-(indolin-5-yl)-[1,1′-biphenyl]-4-yl)acetamide], the IC50 under setting [1] was above 0.1 µM. Same read-out and setting: the same measure for `CC(=O)Nc1ccc(-c2cccc(-c3ccc(NC(C)=O)c(C(C)C)c3)c2O)cc1F` [Example 96, N,N′-(3-Fluoro-2′-hydroxy-3″-isopropyl-[1,1′:3′,1″-terphenyl]-4,4″diyl)diacetamide]: above 0.1 µM. Same read-out and setting: then `CC(=O)Nc1ccc(-c2cccc(-c3cccc(OC4CCC4)c3)c2O)cc1F` [Example 114, N-(3″-Cyclobutoxy-3-fluoro-2′-hydroxy-[1,1′:3′,1″-terphenyl]-4-yl)acetamide], with above 0.1 µM; and `CC(=O)Nc1ccc(-c2cccc(-c3cccc(N4CC5CC4CN5)c3)c2O)cc1F` (stereo not shown) [Example 170, N-(3″-(2,5-diazabicyclo[2.2.1]heptan-2-yl)-3-fluoro-2′-hydroxy-[1,1:3′,1″-terphenyl]-4-yl)acetamide], with 0.01 to 0.1 µM. Same read-out and setting: then `CC(=O)Nc1ccc(-c2cccc(-c3ccc4[nH]cnc4c3)c2O)cc1F` [Example 131, N-(3′-(1H-Benzo[d]imidazol-5-yl)-3-fluoro-2′-hydroxy-[1,1′-biphenyl]-4-yl)acetamide], with 0.01 to 0.1 µM; and `O=C1CCCCN1c1ccc(-c2cccc(-c3cccc(N4CCNCC4)c3)c2O)cc1F` [Example 223, 1-(3-fluoro-2′-hydroxy-3″-(piperazin-1-yl)-[1,1′:3′,1″-terphenyl]-4-yl)piperidin-2-one], with 0.01 to 0.1 µM; and `CC(=O)Nc1ccc(-c2cccc(-c3cccc(-c4nn[nH]n4)c3)c2O)cc1F` [Example 227, N-(3-fluoro-2′-hydroxy-3″-(2H-tetrazol-5-yl)-[1,1′:3′,1″-terphenyl]-4-yl)acetamide], with above 0.1 µM.

As to `CC(=O)Nc1ccc(-c2cccc(-c3cnc4[nH]ccc4c3)c2O)cc1F` [Example 124, N-(3-fluoro-2′-hydroxy-3′-(1H-pyrrolo[2,3-b]pyridin-5-yl)-[1,1′-biphenyl]-4-yl)acetamide], the IC50 under setting [1] is above 0.1 µM.

`CC(=O)Nc1ccc(-c2cc(F)cc(-c3cnn(C4CCN(C)CC4)c3)c2O)cc1F` [Example 84, N-(3,5′-Difluoro-2′-hydroxy-3′-(1-(1-methylpiperidin-4-yl)-1H-pyrazol-4-yl)-[1,1′-biphenyl]-4-yl)acetamide]: the IC50 under setting [1] is above 0.1 µM.

For orientation: IC50 means the point on the concentration scale where inhibition reaches its midpoint.
